According to patent US20150057354A1, “METHOD OF MAINTAINING OR IMPROVING TACTICAL PERFORMANCE AND COGNITIVE FUNCTION THROUGH DIETARY SUPPLEMENTATION” (Natural Alternatives International, Inc., priority 2013, published 2015):
Like-named read-outs stand apart in the source and are kept apart here.

Key:
[1] = Source text: (§1) Each session required all participants to perform a 4 km run dressed in shorts, T-shirt and running shoes. Immediately following the 4 km run, participants performed five countermovement jumps.
Targets were set at a 40-m distance from the firing line and were all headshots. Each shot that hit the target was considered accurate. Twenty targets were set up on the range. All participants were notified prior to the start of data collection which target they were required to shoot at. Immediately following the 120-m sprint, participants continued onto the shooting range and shot 5 times while standing and 5 times from a kneeling position with their assault rifle. Participants were requested to shoot rapidly and accurately. While shooting, each participant was required to handle a misfire in their weapon. The misfire was prearranged by the investigative team, which involved placing an empty bullet into weapon's magazine (weapon's ammunition storage and feeding device). This required the participant to recognize and correct the misfire and continue to deliver fire at the designated target. The designed misfire was set to increase the stress of the shooting, with the participants already fatigued from the 4 km run, jumps and sprint with full gear. The number of accurate shots and the time required to perform these shots was recorded.
(§2) Participants in the supplement group were provided with 2 tablets of sustained-release β-alanine at a dose of 2 g per serving three times per day (total β-alanine intake was 6 g per day) and subjects in the placebo group were provided with an equivalent amount of rice powder. […] Supplementation occurred over a 28 day period.

[2] = β-alanine taken as a free amino acid; some individuals; cited from earlier work
[3] = Study 1: vertical jump power (five countermovement jumps) after 4-km run; conditions: at Post
[4] = 1-min Sprint
Description: (§3) Data collection occurred before (PRE) and following (POST) 30 days of supplementation. During each session participants performed military relevant tasks that included a 2.5 km run, a 1-min sprint, and a 50-m casualty carry. In addition, participants performed repeated 30-m sprints in combat gear (combat vest with ammunition, helmet, and assault rifle). Between each sprint soldiers were tested on marksmanship. Immediately following the final sprint and target shooting, participants performed a 2-min serial subtraction test on the firing range to assess cognitive function under stressful conditions (continuous shooting). These assessments were based upon previously published investigations examining military performance responses during stressful conditions (Nindl, Leone et al. 2002, Harman, Gutekunst et al. 2008).
(§4) These tests simulated a rapid approach to the battlefield. […] During the run and sprint all participants were dressed in shorts, T-shirt and running shoes. Both the run and sprint were performed on an asphalt road. All participants were provided with an individual global positioning system (GPS) that they wore in a vest underneath their shirt. The GPS unit (MinimaxX, V4.3, Catapult Innovations, Victoria, Australia) was positioned in a posterior pocket on the vest situated between the participant's right and left scapula in the upper-thoracic spine region. Information on velocity patterns was recorded during the 2.5 run, as well as total distance run during the 1-min sprint. During the 2.5 km run the velocity of the run was divided into three operationally distinct thresholds and defined as low speed (2.50 m˜s^−1-3.60 m˜s^−1), moderate speed (3.61 m·s^−1-4.43 m·s^−1) or high speed (>4.44 m·sec^−1). In addition, the average velocity and average heart rate during the 2.5 km run were also downloaded from the GPS receiver/transmitters.
During the 1-min sprint peak velocity, average velocity, total distance, total distance within 90% of peak velocity, and percent decline was downloaded from the GPS receiver/transmitters. All data were collected at 10 Hz and all analyses were performed with the system software provided by the manufacturer.
as §2, with “of (2” for “of 2”, “per serving)” for “per serving”, “powder. Participants were instructed to consume the supplement following their meals with water.” for “powder.”, “occurred every day” for “occurred”, “a 30-day” for “a 28 day”

[5] = 2.5 km run
Source text: (§5) Eighteen male soldiers from an elite combat unit volunteered to participate in this double-blind study. […] Screening for performance enhancing drug use and additional supplementation was accomplished via a health questionnaire completed during participant recruitment. Participants were from the same unit, but were from three different squads. Volunteers from each squad were randomly assigned to one of two groups. The randomization procedure involved that each volunteer from the same squad to be alternatively assigned to each group. […] The first group (BA; age 19.6±0.5 years; height: 1.76±0.05 m; body mass: 72.1±4.5 kg) consumed 6.0 g of β-alanine per day, while the second group (PL; age 20.2±1.0 years; height: 1.79±0.08; body mass: 76.4±6.1 kg) consumed 6 g of placebo (rice flour). During the 30-day study period all participants from all squads participated in the same advanced military training tasks that included combat skill development, physical work under pressure, navigational training, self-defense/hand-to-hand combat and conditioning.
as §3, §4
as §2, with “of (2” for “of 2”, “per serving)” for “per serving”, “powder. Participants were instructed to consume the supplement following their meals with water.” for “powder.”, “occurred every day” for “occurred”, “a 30-day” for “a 28 day”

[6] = four weeks of ingestion, dosages similar to the present one (Hill et al., 2007); cited from earlier work
[7] = 30 days, 6 g per day; p=0.048
[8] = for Average Sprint Time / Fatigue rate: Repeat 30-m Sprints
Description: as §3
as §2, with “of (2” for “of 2”, “per serving)” for “per serving”, “powder. Participants were instructed to consume the supplement following their meals with water.” for “powder.”, “occurred every day” for “occurred”, “a 30-day” for “a 28 day”

[9] = 30 days, 6 g per day, sustained-release tablets
Source text: as §5
Participants in the supplement group were provided with 2 tablets of sustained-release β-alanine at a dose of (2 g per serving) three times per day (total β-alanine intake was 6 g per day) and subjects in the placebo group were provided with an equivalent amount of rice powder. […]

[10] = Pre to Post; p=0.844, ES=0.003
Source text: as §1, §2

[11] = for High Running Velocity (>4.4 m · sec^−1): distance run at high velocity; for Low-Moderate Running Velocity (<4.4 m · sec^−1): distance run at low to moderate velocity
Source text: Twenty male soldiers from a special operations unit of the Israel Defense Force (IDF) volunteered to participate in this study to examine the effect of 28 days of beta-alanine ingestion on physical, tactical, psychomotor and cognitive performance in military personnel. Following an explanation of all procedures, risks and benefits, each participant provided their informed consent to participate in the study. The Helsinki committee of the IDF Medical Corps approved the research protocol. […] Screening for performance enhancing drug use and additional supplementation was accomplished via a health questionnaire completed during participant recruitment. All participants were from the same unit, but were from three different squads. Volunteers from each squad were randomly assigned to one of two groups. The first group; (BA; 20.1±0.7 years; height: 1.79±0.07 m; weight: 78.3±9.7 kg) consumed 6.0 g of β-alanine per day, while the second group (PL; 20.2±1.1 years; height: 1.80±0.05; weight: 79.6±7.8 kg) consumed 6 g of placebo (rice flour). There were an equal number of participants from each squad that were randomly assigned to either BA or PL.
as §1
All participants were provided with an individual global positioning system (GPS) that they wore in a vest underneath their shirt. The GPS unit (MinimaxX, V4.3, Catapult Innovations, Victoria, Australia) was positioned in a posterior pocket on the vest situated between the participant's right and left scapula in the upper-thoracic spine region. Information on velocity patterns was recorded during the 4 km run. Peak velocity, mean velocity, distance covered running at slow-moderate speed (<4.44 m·sec-1), distance covered running at high speed (4.44+m·sec-1), and the percent of total distance run at slow-moderate and high speeds were downloaded from the GPS receiver/transmitters. Data was collected at 10 Hz and all analysis was performed with the system software provided by the manufacturer.
as §2
Data were analyzed using a 2×2 [treatment (BA, PL) X time (pretest, posttest)] mixed factorial ANOVA.

[12] = 4-km run, POST (28 days, 6 g per day)

In the case of NCCC(=O)O [BA, β-alanine], the “difference between the groups in time to perform 10 shots” value ([1]; BA faster than PL, not statistically different) is reported as 24.8%, the “time to perform 10 shots” value ([1]; Post, PL 37.7±13.9 sec, p=0.161) is reported as 30.2 ± 5.8 s and the “number of shots on target” value ([1]; at Post, of 10 shots, 40-m targets, p=0.012 vs PL) is reported as 8.2±1.0. The “duration of flushing/tingling of the skin” value [2] was “less than 60 minutes”, the “vertical jump relative mean power” value [3] was 14.1±1.7 w·kg-1 and the “vertical jump relative peak power vs PL” value ([3]; p=0.034, ES=0.27) was “significantly greater”. For the same molecule, the “relative mean power, percent greater than PL” value ([3]; p=0.139, ES 0.14) was 10.2%, the “Average Velocity” value ([4]; POST) was 5.09 ± 0.36 m · s^−1 and the “Distance Run at 90% Peak Velocity” value ([4]; POST) was 58.5 ± 7.7. For the same molecule, the Fatigue rate ([4]; POST) was 30.9 ± 6.7%, the “Peak Velocity” value ([4]; POST) was 6.57 ± 0.18 m · s^−1 and the total distance run ([4]; POST) was 302.4±21.2 m. For the same molecule, the “Average Velocity” value ([4]; PRE) was 5.21 ± 0.28 m · s^−1, the “Distance Run at 90% Peak Velocity” value ([4]; PRE) was 69.5 ± 4.1 and the Fatigue rate ([4]; PRE) was 32.5 ± 5.5%. The “Peak Velocity” value ([4]; PRE) was 6.68 ± 0.36 m · s^−1, the total distance run ([4]; PRE) was 310.0±16.7 m and the “Average Heart Rate” value ([5]; POST) was 165.7 ± 6.1 beats · min^−1. For the same molecule, the “Average Velocity” value ([5]; POST) was 4.09 ± 0.25 m · s^−1, the “Distance Run at High Intensity” value ([5]; POST) was 23.9 ± 20.1% and the “Distance Run at Low Intensity” value ([5]; POST) was 10.7 ± 14.0%. The “Distance Run at Moderate Intensity” value ([5]; POST) was 65.1 ± 14.8%, the Time ([5]; POST (30 days, 6 g per day)) was 629 ± 23.8 s and the “Average Heart Rate” value ([5]; PRE) was 156.8 ± 15.5 beats · min^−1. The “Average Velocity” value ([5]; PRE) was 3.97 ± 0.17 m · s^−1, the “Distance Run at High Intensity” value ([5]; PRE) was 18.4 ± 12.4% and the “Distance Run at Low Intensity” value ([5]; PRE) was 12.3 ± 12.0%. The “Distance Run at Moderate Intensity” value ([5]; PRE) was 69.8 ± 12.1%, the Time ([5]; PRE) was 624 ± 22.6 s and the “elevation of muscle carnosine concentrations” value [6] was 60%. The “Δ carnosine content within the gastrocnemius muscle vs PL” value [7] was “Significant elevations”, the “Δ time for the 50-m casualty carry vs PL” value ([8]; 30 days, 6 g per day, p=0.044) was “significantly (p=0.044) improved” and the “serial subtraction test under stress vs placebo” value ([8]; 30 days, p=0.022) was “significantly improve performance”. For the same molecule, the “Average Sprint Time” value ([8]; POST) was 8.00 ± 0.29 s, the Fatigue rate ([8]; POST) was 91.8 ± 3.0% and the “Average Sprint Time” value ([8]; PRE) was 7.42 ± 0.24 s. For the same molecule, the Fatigue rate ([8]; PRE) was 91.6 ± 4.8%, the adverse events [9] was “No adverse events were reported” and the “serial subtraction test, BA vs PL” value [10] was “no significant interactions”. For the same molecule, the “% Distance run at High Running Velocity” value ([11]; 4-km run, POST) was 25.4 ± 18.0%, the “% Distance run at Low to Moderate Running Velocity” value ([11]; 4-km run, POST) was 74.3 ± 18.3% and the “Average Velocity” value [11, 12] was 4.13 ± 0.27 m · sec^−1. The “Peak Velocity” value [11, 12] was 5.46 ± 0.26 m · sec^−1, the “% Distance run at High Running Velocity” value ([11]; 4-km run, PRE) was 29.3 ± 16.1% and the “% Distance run at Low to Moderate Running Velocity” value ([11]; 4-km run, PRE) was 70.8 ± 16.2%. For the same molecule, the “Average Velocity” value ([11]; 4-km run, PRE) was 4.25 ± 0.22 m · sec^−1, the “Peak Velocity” value ([11]; 4-km run, PRE (before supplementation), mean ± SD) was 5.84 ± 0.63 m · sec^−1 and the “difference between BA and PL in the distance run at a high velocity” value ([11]; 4-km run, Post, not statistically significant) was 34.9%. For the same molecule, the “High Running Velocity (>4.4 m · sec^−1)” value ([11]; 4-km run, POST) was 1009 ± 675, the “High Running Velocity (>4.4 m · sec^−1)” value ([11]; 4-km run, PRE) was 1166 ± 610 and the “Low-Moderate Running Velocity (<4.4 m · sec^−1)” value ([11]; 4-km run, POST) was 2957 ± 672. For the same molecule, the “Low-Moderate Running Velocity (<4.4 m · sec^−1)” value ([11]; 4-km run, PRE) was 2811 ± 605, the “4K Run Time” value ([11]; POST) was 962.6 ± 65.0 s and the “4K Run Time” value ([11]; PRE) was 942.4 ± 39.3 s.
